Calls of active or inactive are those of the source. The calls are words filed in the database; no cut-off is given here.
Key:
Escherichia coli = experiment: Induction of Escherichia coli DNA cleavage at 100 ug after 2 hrs by agarose gel electrophoresis
MCF7 = experiment: Cytotoxicity against human MCF7 cells by SRB assay; type: functional; settings: for CC50: read-out: LC50 (the source's name)
HeLa = experiment: Cytotoxicity against human HeLa cells by SRB assay; type: functional

Row | SMILES | Activity (Escherichia coli) | GI50 (MCF7) [µM] | TGI (MCF7) [µM] | CC50 (MCF7) [µM] | GI50 (HeLa) [µM] | LC50 (concentration killing 50% of cells) (HeLa) [µM] | TGI (HeLa) [µM]
1 | COc1ccc2cc(C3SC(NC(C)=O)=NN3C(C)=O)c3nnnn3c2c1 (centres undefined) | Active | > 100 | > 100 | > 100 | > 100 | > 100 | > 100
2 | COc1cccc2c1C(=O)c1c(O)c3c(c(O)c1C2=O)C[C@@](O)(C(=O)CO)C[C@@H]3O[C@H]1C[C@H](N)[C@H](O)[C@H](C)O1 [DOXORUBICIN] |  | < 0.1 | > 0.1 | > 100 | < 0.1 |  | > 0.1
3 | COc1cc2cc(C3SC(NC(C)=O)=NN3C(C)=O)c3nnnn3c2cc1OC (centres undefined) | Active | > 100 | > 100 | > 100 | > 100 | > 100 | > 100
4 | CC(=O)NC1=NN(C(C)=O)C(c2cc3cc(C)ccc3n3nnnc23)S1 (centres undefined) | Active | > 100 | > 100 | > 100 | 81.3 | > 100 | > 100
5 | CC(=O)NC1=NN(C(C)=O)C(c2cc3cccc(C)c3n3nnnc23)S1 (centres undefined) | Active | 95.3 | > 100 | > 100 | 85.1 | > 100 | > 100
6 | COc1cccc2cc(C3SC(NC(C)=O)=NN3C(C)=O)c3nnnn3c12 (centres undefined) | Active | > 100 | > 100 | > 100 | > 100 | > 100 | > 100
7 | CC(=O)NC1=NN(C(C)=O)C(c2cc3ccccc3n3nnnc23)S1 (centres undefined) | Active | > 100 | > 100 | > 100 | > 100 | > 100 | > 100
8 | CC(=O)NC1=NN(C(C)=O)C(c2cc3cc(Cl)ccc3n3nnnc23)S1 (centres undefined) | Active | > 100 | > 100 | > 100 | < 0.1 | > 100 | > 100
9 | CC(=O)NC1=NN(C(C)=O)C(c2cc3cc(Br)ccc3n3nnnc23)S1 (centres undefined) | Active | > 100 | > 100 | > 100 | < 0.1 | > 100 | > 100
10 | COc1ccc2c(c1)cc(C1SC(NC(C)=O)=NN1C(C)=O)c1nnnn12 (centres undefined) | Active | > 100 | > 100 | > 100 | > 100 | > 100 | > 100
11 | CC(=O)NC1=NN(C(C)=O)C(c2cc3ccc(C)cc3n3nnnc23)S1 (centres undefined) |  | 98.9 | > 100 | > 100 | 83.3 | > 100 | > 100

— ChEMBL document CHEMBL2424516, “Facile synthesis of novel quinoline derivatives as anticancer agents” (2013)
